In US20170015654A1, “PYRIDAZINE COMPOUND” (TAKEDA PHARMACEUTICAL COMPANY LIMITED, priority 2014, published 2017):

Target: T1, SCD (Homo sapiens, UniProt O00767)
T1 construct: HCT116 (ATCC (American Type Culture Collection)) was inoculated at 1×10^5 cells/well to a 96-well plate; host or cells: HCT116
T1 sequence (O00767 1-359): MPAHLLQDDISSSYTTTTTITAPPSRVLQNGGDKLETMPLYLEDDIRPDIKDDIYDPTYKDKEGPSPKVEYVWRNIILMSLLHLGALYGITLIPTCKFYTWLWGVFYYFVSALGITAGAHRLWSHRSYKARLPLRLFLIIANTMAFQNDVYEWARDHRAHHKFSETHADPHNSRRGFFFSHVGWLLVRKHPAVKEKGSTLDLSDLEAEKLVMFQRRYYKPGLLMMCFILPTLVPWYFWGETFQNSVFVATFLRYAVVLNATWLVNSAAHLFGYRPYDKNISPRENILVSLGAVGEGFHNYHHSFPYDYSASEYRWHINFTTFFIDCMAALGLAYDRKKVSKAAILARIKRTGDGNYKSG
Experiment: Measurement of SCD inhibitory activity using human large intestine cancer cell line (HCT116 cell)
Assay type: cell-based
Settings: HCT-116; 1 μM compound; HCT116 cells; [14C]stearic acid, 3 hours; read-out: Rate of inhibition of SCD activity at compound concentration of 1 μM
Experimental: Measurement of SCD Inhibitory Activity Using Human Large Intestine Cancer Cell Line (HCT116 Cell)
HCT116 (ATCC (American Type Culture Collection)) was inoculated at 1×10^5 cells/well to a 96-well plate and cultured overnight in DMEM (Dulbecco's modified Eagle medium) containing 10% FBS (fetal bovine serum) (AusGeneX PTY LTD.). After the culture, each well was washed twice with phosphate-buffered saline (PBS) (200 μL). Then, a reaction medium (DMEM, penicillin/streptomycin, 0.3% BSA) containing 1.5 μM of the test compound was added thereto at 40 μL/well, and the plate was left standing for 15 minutes in a CO2 incubator (37° C.). A reaction medium containing 0.1 μCi of [^14C]stearic acid was added at 20 μL/well to the plate thus left standing, and the plate was left standing for 3 hours in a CO2 incubator (37° C.). Each well of the plate thus left standing was washed twice with 200 μL of PBS. Then, 2.5 N NaOH was added thereto at 20 μL/well, and the plate was provided with a plate seal and then incubated overnight in a heat sterilizer set to 55° C. A formic acid:methanol:chloroform (1:16:4) solution was added at 200 μL/well to the plate thus left standing. Further, the mixture in each well was separated into two layer by the addition of 200 μL of pure water. After the separation, a 10 μL aliquot was separated from the lower layer, spotted on a reverse-phase TLC plate (RP-18, 1154230001, Merck KGaA), and developed with an acetonitrile:pure water:acetic acid (95:4.5:0.5) solution. After drying, the TLC plate was transferred to Imaging Plate (Fuji Photo Film) for 5 hours or longer. Detection was carried out using FLA7000 (GE Healthcare Japan Corp.), and the obtained spot images were digitalized using ImageQuant TL (GE Healthcare Japan Corp.) to determine the rate of inhibition of SCD activity (%).

Row | SMILES | inhibition at 1 µM
1 | OCc1nnc(-c2ccc(N3CCC(c4ccc(C(F)(F)F)cc4)(C(F)(F)F)CC3)nn2)o1 [Example 84, (5-(6-(4-(Trifluoromethyl)-4-(4-(trifluoromethyl)phenyl)piperidin-1-yl)pyridazin-3-yl)-1,3,4-oxadiazol-2-yl)methanol] | 99%
2 | COC1(c2ccc(S(F)(F)(F)(F)F)cc2)CCN(c2ccc(-c3nnc(CO)s3)nn2)CC1 [Example 111, (5-(6-(4-Methoxy-4-(4-(pentafluorosulfanyl)phenyl)piperidin-1-yl)pyridazin-3-yl)-1,3,4-thiadiazol-2-yl)methanol] | 101%
3 | OCc1nnc(-c2ccc(N3CCC(c4ccc(C(F)(F)F)cc4)(C(F)(F)F)CC3)nn2)s1 [Example 113, (5-(6-(4-(Trifluoromethyl)-4-(4-(trifluoromethyl)phenyl)piperidin-1-yl)pyridazin-3-yl)-1,3,4-thiadiazol-2-yl)methanol] | 99%
4 | N#CC1(c2ccc(S(F)(F)(F)(F)F)cc2)CCN(c2ccc(-c3nnc(CO)o3)nn2)CC1 [Example 58, 1-(6-(5-(Hydroxymethyl)-1,3,4-oxadiazol-2-yl)pyridazin-3-yl)-4-(4-(pentafluorosulfanyl)phenyl)piperidine-4-carbonitrile] | 97%
5 | N#CC1(c2ccc(S(F)(F)(F)(F)F)cc2)CCN(c2ccc(-c3nc(CO)ns3)nn2)CC1 [Example 108, 1-(6-(3-(Hydroxymethyl)-1,2,4-thiadiazol-5-yl)pyridazin-3-yl)-4-(4-(pentafluorosulfanyl)phenyl)piperidine-4-carbonitrile] | 100%
6 | COC1(c2ccc(S(F)(F)(F)(F)F)cc2)CCN(c2ccc(-c3nnc(CO)o3)nn2)CC1 [Example 93, (5-(6-(4-Methoxy-4-(4-(pentafluorosulfanyl)phenyl)piperidin-1-yl)pyridazin-3-yl)-1,3,4-oxadiazol-2-yl)methanol] | 99%
7 | OCc1nsc(-c2ccc(N3CCC(c4ccc(C(F)(F)F)cc4)(C(F)(F)F)CC3)nn2)n1 [Example 112, (5-(6-(4-(Trifluoromethyl)-4-(4-(trifluoromethyl)phenyl)piperidin-1-yl)pyridazin-3-yl)-1,2,4-thiadiazol-3-yl)methanol] | 97%
8 | COC1(c2ccc(S(F)(F)(F)(F)F)cc2)CCN(c2ccc(-c3nc(CO)ns3)nn2)CC1 [Example 110, (5-(6-(4-Methoxy-4-(4-(pentafluorosulfanyl)phenyl)piperidin-1-yl)pyridazin-3-yl)-1,2,4-thiadiazol-3-yl)methanol] | 98%
9 | OCc1noc(-c2ccc(N3CCC(c4ccc(C(F)(F)F)cc4)(C(F)(F)F)CC3)nn2)n1 [Example 82, (5-(6-(4-(Trifluoromethyl)-4-(4-(trifluoromethyl)phenyl)piperidin-1-yl)pyridazin-3-yl)-1,2,4-oxadiazol-3-yl)methanol] | 99%
10 | N#CC1(c2ccc(S(F)(F)(F)(F)F)cc2)CCN(c2ccc(-c3nnc(CO)s3)nn2)CC1 [Example 109, 1-(6-(5-(Hydroxymethyl)-1,3,4-thiadiazol-2-yl)pyridazin-3-yl)-4-(4-(pentafluorosulfanyl)phenyl)piperidine-4-carbonitrile] | 96%
